From paper PMC12518639, “Apomorphine is a novel necroptosis inhibitor targeting mixed lineage kinase domain-like protein oligomerization” (Cell Death Discovery, 2025)

Key:
[1] = system: DSS-induced colitis in C57BL/6 mice; assay: DSS-induced colitis model; assay type: in vivo, mouse
Experimental: For DSS-induced colitis, male C57BL/6 mice aged 6–8 weeks (Central Lab Animal Inc., S. Korea) were administered 2.5% DSS (36–50 kDa, 9011-18-1, MP Biomedicals, Solon, OH, USA) in their drinking water for 8 days. The 2.5% DSS-supplemented drinking water was prepared by dissolving 12.5 g of DSS powder in 500 mL of distilled water and was freshly prepared and replaced daily throughout the 8 days. Body weight and DAI score were recorded daily. The DAI score was calculated based on weight loss (no weight loss, 1–5%, 5–10%, 10–15%, and >15% weight loss, respectively, representing DAI scores of 0, 1, 2, 3, and 4), stool consistency/diarrhea (normal = 0, loose stools = 2, and watery diarrhea = 4), and bleeding (no bleeding = 0, slight bleeding = 2, gross bleeding = 4). At the end of the experiment, the mice were sacrificed, and tissue samples were collected.
Each mouse colon was removed, measured in length, cut open, fixed in Bouin’s fixative (50% ethanol/5% acetic acid in distilled water), and embedded in paraffin. Tissue sections were stained with H&E (Sigma-Aldrich). Histological evaluation of the colitis lesions along the entire colon was performed using the scoring system: degree of crypt structural damage (0–3), degree of inflammatory cell infiltration (0–3), and degree of submucosal edema (0–3). For PAS staining, deparaffinized and rehydrated tissue sections were treated with 0.5% periodic acid (10450-60-9, Junsei Chemical Co., Tokyo, Japan) and stained with Schiff’s reagent (3952016, Sigma-Aldrich). Sections were dehydrated in ethyl alcohol and coverslipped.

[2] = system: APAP-induced liver injury in BALB/c mice; assay: APAP-induced liver injury model; assay type: in vivo, mouse; settings: 15 mg/kg once, APAP i.p., 24 h; for Necrotic area of liver tissue (H&E): n=3
Experimental: For APAP-induced liver injury, male BALB/c mice aged 6–8 weeks (Central Lab Animal Inc., S. Korea) and male MLKL^–/– C57BL/6 mice aged 6–8 weeks (Cyagen, Santa Clara, CA, USA) were administered acetaminophen (APAP; 400–500 mg/kg, 103-90-2, Sigma-Aldrich) by i.p. injection to induce liver injury in the presence or absence of APO after 12 h of fasting. After 24 h, the mice were sacrificed to obtain liver tissues for further analysis.
For liver tissue preparation, each liver was perfused with DPBS and then fixed in 4% paraformaldehyde (PFA; PC2031-050-00, Biosesang, S. Korea) before embedding in paraffin. Sections were stained with H&E, and necrotic areas were quantified using ImageJ by calculating the proportion of pale or unstained regions relative to the total tissue area. Mouse liver sections were subjected to IHC staining to assess distinct forms of cell death: an anti-p-MLKL antibody (MA5-32752, Thermo Fisher Scientific) to evaluate p-MLKL localization (necroptosis), a TUNEL assay kit (4810-30-K, R&D Systems) for apoptosis, and an anti-4-HNE antibody (GTX01087, GeneTex) for ferroptosis.

Wt-hMLKL = target: T1, Wt-hMLKL (Homo sapiens, UniProt Q8NB16); assay: SPR binding to Wt-hMLKL; settings: for Kd: SPR, CM5 chip, 25 °C
T1 construct: purchased Abcam ab241453
T1 sequence (Q8NB16 1-471): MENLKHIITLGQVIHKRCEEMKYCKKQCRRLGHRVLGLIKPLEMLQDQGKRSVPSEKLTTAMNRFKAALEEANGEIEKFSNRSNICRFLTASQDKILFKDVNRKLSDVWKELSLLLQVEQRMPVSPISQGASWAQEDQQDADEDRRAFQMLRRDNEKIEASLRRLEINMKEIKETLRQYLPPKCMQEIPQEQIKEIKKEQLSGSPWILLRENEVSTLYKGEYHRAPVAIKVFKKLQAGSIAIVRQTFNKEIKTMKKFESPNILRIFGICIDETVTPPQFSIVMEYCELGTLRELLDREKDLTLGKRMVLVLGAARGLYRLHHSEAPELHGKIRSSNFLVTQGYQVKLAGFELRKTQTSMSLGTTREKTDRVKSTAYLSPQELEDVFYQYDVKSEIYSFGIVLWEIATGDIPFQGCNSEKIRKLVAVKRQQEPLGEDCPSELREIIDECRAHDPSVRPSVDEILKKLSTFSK
Source text: The hMLKL plasmid (RC213152, OriGene, Rockville, MD, USA), and recombinant Wt-hMLKL (ab241453, Abcam) and Wt-mMLKL (MBS1379843, MyBioSource, San Diego, CA, USA) proteins were purchased. Nt-hMLKL (2–154), Nt-mMLKL (1–180), and Ct-hMLKL (183–471) were generated using the pBT7-N-His vector. Nt-hMLKL^C86A, Nt-hMLKL^F148A, -hMLKL^C86A/L89A/D94A, and Nt-hMLKL^R145A/R146A/F148A/M150A were generated using the Site-directed Mutagenesis Kit (EZ004S, Enzynomics, S. Korea). These constructs were subcloned into pBT7-N-His and pET-15b plasmid vectors. E. coli BL21 cells transformed with the cloned expression vectors were cultured in LB medium and supplemented with 100 μg/mL ampicillin until an OD at 600 nm of 0.5–0.6 was reached. The cultures were induced by 1 mM IPTG (367-93-1, Sigma-Aldrich). The cells were lysed and centrifuged. The clear supernatants were subjected to Ni-NTA affinity chromatography (175018169, QIAGEN, Hilden, Germany). Plasmids encoding mMLKL (1–464)–gyrase fusion constructs were kindly provided by Prof. James Murphy (Cell Signalling and Cell Death Division, The Walter and Eliza Hall Institute of Medical Research, Parkville, Victoria 3052, Australia).
The interactions of Wt-hMLKL, Wt-mMLKL, Nt-mMLKL, Nt, and Ct-hMLKL proteins with Re-APO or Ox-APO were detected through SPR analysis using Biacore™ T200 (Cytiva, Marlborough, MA, USA). Each MLKL protein was immobilized on a CM5 sensor chip. To derive the Rligand values, coupling processes were performed based on the molecular weights of the MLKL protein (MW ligand) and Re-APO or Ox-APO (MW analyte). Re-APO or Ox-APO was injected into an HBS buffer (10 mM HEPES, 150 mM NaCl, 3.4 mM EDTA, and 0.005% Tween 20, pH 7.4) at 25 °C (10 μL/min flow rate). Sensorgrams were recorded and analyzed in real-time using the control software in the BIAcore T200 system. All data were analyzed using the BIA evaluation software (Cytiva).

[3] = 15 mg/kg i.p. daily, 2.5% DSS 8 days

SMILES	average histologic score ([1]; 1.5 mg/kg i.p. daily, 2.5% DSS 8 days)	average histologic score [1, 3]	DAI score and colon length ([1]; i.p. daily, 2.5% DSS 8 days)	Serum ALT and AST levels [2]	membrane p-MLKL in liver (IHC) [2]	Necrotic area of liver tissue (H&E) [2] [%]	Kd (Wt-hMLKL) [nM]	fold stronger binding than Re-APO (Wt-hMLKL; from KD values)	alleviation of DSS-induced colitis symptoms relative to Ox-APO ([1]; at the same concentration)	colitis symptoms and pathological changes (H&E, PAS) ([1]; 0.15, 1.5 or 15 mg/kg i.p. daily, oxidative state not determined)
CN1CCc2cccc3c4c(cc1c23)C=CC(=O)C4=O [Ox-APO]	3.0	1.2	more effective than Re-APO	significantly improved	dramatic decrease	1	5	~ 50 fold	–	–
CN1CCc2cccc3c2C1Cc1ccc(O)c(O)c1-3 (stereo not drawn) [Re-APO]	–	2.6	–	significantly improved	dramatic decrease	3	244	–	about ten times weaker than Ox-APO	–
CN1CCc2cccc3c2[C@@H]1Cc1ccc(O)c(O)c1-3 [S62, (6aS)-6-methyl-5,6,6a,7-tetrahydro-4H-dibenzo[de,g]quinoline-10,11-diol]	–	–	–	–	–	–	–	–	–	significantly alleviated
